The text below walks through data of patent US20110251173A1, “CHEMICAL COMPOUNDS” (AstraZeneca AB, priority 2010, published 2011).

This experiment concerns the target T1, human DGAT1 (Homo sapiens, UniProt O75907).
T1 construct: made in house; host or cells: Sf9 insect cells (baculovirus), membrane fraction
T1 sequence (O75907 1-488): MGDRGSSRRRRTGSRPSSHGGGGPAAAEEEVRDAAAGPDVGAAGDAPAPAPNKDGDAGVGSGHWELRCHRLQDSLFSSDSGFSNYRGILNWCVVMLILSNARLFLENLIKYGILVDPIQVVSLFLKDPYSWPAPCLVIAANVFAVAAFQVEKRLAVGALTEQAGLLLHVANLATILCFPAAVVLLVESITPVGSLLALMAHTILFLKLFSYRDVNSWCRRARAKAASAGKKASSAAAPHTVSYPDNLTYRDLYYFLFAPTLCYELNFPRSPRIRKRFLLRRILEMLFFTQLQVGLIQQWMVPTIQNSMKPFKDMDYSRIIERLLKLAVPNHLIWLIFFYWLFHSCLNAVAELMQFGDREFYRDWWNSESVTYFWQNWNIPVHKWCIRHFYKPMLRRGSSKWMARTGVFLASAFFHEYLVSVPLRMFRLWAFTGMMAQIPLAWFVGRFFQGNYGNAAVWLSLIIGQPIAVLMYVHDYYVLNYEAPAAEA
Briefly: Human Enzyme Assay (DGAT1 inhibition, 14C oleoyl CoA incorporation into triolein). The format is biochemical. The note with it: human DGAT1 expressed in sf9 insect cell membranes; Examples 25 to 59; rounded to 2 decimal places. As for the experimental part: Briefly, sf9 cells were infected with recombinant baculovirus containing human DGAT1 coding sequences and harvested after 48 h. Cells were lysed by sonication and membranes isolated by centrifuging at 28000 rpm for 1 h at 4° C. on a 41% sucrose gradient. The membrane fraction at the interphase was collected, washed, and stored in liquid nitrogen.
The reaction was started by adding ^14C oleoyl coenzyme A (30 μM final concentration) and incubated at room temperature for 30 minutes. The reaction was stopped by adding 200 μl 2-propanol:heptane 7:1. Radioactive triolein product was separated into the organic phase by adding 300 μl heptane and 100 μl 0.1 M carbonate buffer pH 9.5. DGAT1 activity was quantified by counting aliquots of the upper heptane layer by liquid scintillography.

Structures are written as SMILES.

Usually IC50 stands for the point on the concentration scale where inhibition reaches its midpoint. A higher IC50 goes with a need for much substance. `C[C@@H]1CN(c2ccc(-c3ccccc3Cl)c(C#N)c2)C(=O)c2c(N)ncnc2O1` [Example 59, (R)-4-(4-Amino-8-methyl-5-oxo-7,8-dihydropyrimido[5,4-f][1,4]oxazepin-6(5H)-yl)-2′-chlorobiphenyl-2-carbonitrile]: inhibition was half-maximal at 20 nM (IC50).
